For series [1], the system named is erythrocytic forms of P. falciparum (strain 3D7). Description: Viability screening of antiplasmodial activity (SYBR-gold DNA quantification, 96 h). It is filed as cell-based, Plasmodium falciparum. Particulars: for activity at 0.3 µM / activity at 3 µM: 96 h; for activity at 0.3 µM: read-out: Parasitemia (3D7) at 0.3 µM [%]; for activity at 3 µM: read-out: Parasitemia (3D7) at 3 µM [%]; for SI (Selectivity index for 3D7 erythrocytic forms versus HEK293 cells): 3D7 versus HEK293 cells.

The next series has as its target rPfGSK-3 (Plasmodium falciparum, UniProt O77344). Description: KinaseGlo Plus assay for inhibition of PfGSK-3. In kind it is biochemical.
The next series deals with rHsGSK-3. Description: KinaseGlo Plus assay for inhibition of HsGSK-3. It is filed as biochemical, human. Particulars: for rHsGSK-3 Activity at 10 µM [%]: remaining activity, calculated on DMSO controls, Table 4. The method, then: A commercial luminescence-based kinase assay was used to investigate the enzymatic activity of kinases and to test potential kinase inhibitors. The KinaseGlo Plus assay (KinaseGlo Plus, Promega, Madison, WI, USA) provides a linear luminescence signal at ATP concentrations up to 100 μM and offers high signal stability. First, the kinase to be investigated and a corresponding substrate in the presence of ATP are used to perform the kinase reaction. During the substrate phosphorylation, ATP is consumed depending on the kinase activity. Subsequently, luminescence is generated by means of luciferase which is contained in the KinaseGlo Reagent. The intensity of the luminescence signal depends on the amount of ATP remaining in the reaction mixture. The luminescence […] to the enzymatic activity of the kinase. The following approach was used for the kinase reaction: rPfGSK-3 (see 3.4) or rHsGSK-3 (Promega, Madison, WI, USA) (20 ng), GS-1 substrate (Promega, Madison, WI, USA) (12 µg) and ATP (6 µg) (Ultra Pure, Promega, Madison, WI, USA) in 1× kinase reaction buffer (40 mM Tris-HCl pH 7.5, 20 mM MgCl2, 0.1 mg/mL BSA; final reaction volume 5 µL). The kinase reaction was performed for 30 min at 30 °C. The reaction mixture was then mixed with KinaseGlo Reagent (5 µL) and incubated for 10 min at room temperature. The mixture was transferred to a white 384-well plate (NUNC, ThermoFisher, Waltham, MA, USA) and the luminescence signal was measured in an EnVision Multilable Plate Reader (PerkinElmer, Waltham, MA, USA; integration time 0.5 sec/well). For the investigation, potential kinase inhibitors could be added directly to the kinase reaction. All kinase inhibitors were dissolved in DMSO. By appropriate pre-dilution of the inhibitors in kinase reaction buffer the final DMSO concentration in the kinase reaction was at most 1%. As negative control 1% DMSO without substance was measured. Since the luminescence signal is […] proportional to the ATP concentration, a control reaction (reaction without kinase) was measured simultaneously. The difference between kinase reaction and control reaction corresponds to the kinase activity. Using GraphPad Prism (version 6) the measured values were plotted and normalized to the DMSO control.

A further series in a line: in vitro. In kind it is cell-based, human. As to conditions: human, HEK293T Viability at 30 µM [%]. As for the experimental part: (§1) Cytotoxic effects of test compounds on eukaryotic cells were investigated using a HEK293T cell viability assay. First, the cell density of a HEK293T culture was determined. […] The supernatant was then aspirated and fresh culture medium was added to 200 μL into which the test compounds were previously added. All substances were previously dissolved in DMSO. […] The viability of the cells was then examined by adding PrestoBlue® Cell Viability Agent (Invitrogen, Carlsbad, CA, USA). The supernatant was removed, 10% PrestoBlue® was added in preheated PBS and the culture was incubated for 30 min at 37 °C. In cells with an active metabolism, the PrestoBlue dye is reduced, causing it to fluorescence. The fluorescence (λex = 560 nm, λem = 590 nm) was measured in an EnVision Multilable Plate Reader (Perkin Elmer, Waltham, MA, USA; integration time 0.1 sec/well).

For another series, the system named is HEK293T cells. Nature of the series: in vitro. In kind it is cell-based, human. As to conditions: 30 µM. The method, then:
as §1

Setting [2] is: Plasmodium falciparum, 3D7, strain 3D7, erythrocytic forms.
[3] abbreviates: Plasmodium falciparum, 0.3 µM, strain 3D7, calculated on DMSO controls.
Setting [4] is: Plasmodium falciparum, 3 µM, strain 3D7, calculated on DMSO controls.
Where [5] appears, read: 10 µM, remaining activity, calculated on DMSO controls, Table 3, read-out: rPfGSK-3 Activity at 10 µM [%].
Setting [6] is: read-out: rPfGSK-3 Activity at 10 µM [%], 10 µM, remaining activity, calculated on DMSO controls, Table 3.

Like-named read-outs stand apart in the source and are kept apart here. A value given as a limit tells only on which side of the number the result lay.

Sequence of rPfGSK-3 (O77344 entry or part of it): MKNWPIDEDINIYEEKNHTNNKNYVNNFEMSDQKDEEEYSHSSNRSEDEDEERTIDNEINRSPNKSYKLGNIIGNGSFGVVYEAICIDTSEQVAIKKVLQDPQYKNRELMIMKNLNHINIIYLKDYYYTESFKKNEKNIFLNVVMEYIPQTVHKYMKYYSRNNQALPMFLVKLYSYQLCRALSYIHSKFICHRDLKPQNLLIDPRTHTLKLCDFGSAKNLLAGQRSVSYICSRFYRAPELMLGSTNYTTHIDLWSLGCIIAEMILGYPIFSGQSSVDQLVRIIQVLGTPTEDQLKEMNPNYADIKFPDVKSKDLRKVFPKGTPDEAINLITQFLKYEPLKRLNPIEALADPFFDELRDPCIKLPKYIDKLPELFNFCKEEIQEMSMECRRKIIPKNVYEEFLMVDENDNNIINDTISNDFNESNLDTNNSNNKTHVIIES

The IC50 is the concentration needed to halve the response being measured. Read a high IC50 as weaker potency. Regarding `N#Cc1c(N)nc2sc(C(=O)Nc3ccc(Cl)cc3)c(N)c2c1-c1ccccc1Cl` [Compound 3], the IC50 in series [1] (setting [2]) was found to be 0.199 µM; in series [1] (strain 3D7, erythrocytic forms), 0.199 µM. In addition, the “inhibition of plasmodial GSK-3 (in words)” value at rPfGSK-3 is reported as “neither an inhibitor”. Moreover, the “inhibition of human GSK-3 (in words)” value with rHsGSK-3 is “neither an inhibitor”.

As usually defined, the viability is the share of living cells, or the viability signal relative to a control. A high value points to less harm to the cells. For `CNC(=O)c1sc2nc(N)c(C#N)c(-c3cccc(C)c3)c2c1N` [Compound 9j, 3,6-Diamino-5-cyano-N-methyl-4-(3-methylphenyl)thieno[2,3-b]pyridine-2-carboxamide], in the series “in vitro”, the viability at 48 h, 30 µM was found to be 67.2 ± 21.5%. The activity at 0.3 µM in series [1] (setting [3]) was 74.6 ± 28.6%. In addition, the activity at 3 µM in series [1] (setting [4]) was 108 ± 24.2%. For the same compound, the “rHsGSK-3 Activity at 10 µM [%]” value in the series on rHsGSK-3 is listed as 87.6 ± 7.4%.

In the case of `Cc1cccc(-c2c(C#N)c(N)nc3sc(C(=O)NC4CC4)c(N)c23)c1` [Compound 9m, 3,6-Diamino-5-cyano-N-cyclopropyl-4-(3-methylphenyl)thieno[2,3-b]pyridine-2-carboxamide], the viability at 48 h, 30 µM in “in vitro” stood at 74.3 ± 31.1%. Also, in series [1] (setting [3]), the activity at 0.3 µM is 74.9 ± 15.7%. Also, the activity at 3 µM in series [1] (setting [4]) is 88 ± 18.2%. The remaining activity at 10 µM at rPfGSK-3 (setting [5]) was under 40%. Besides, in the series with rHsGSK-3, the “rHsGSK-3 Activity at 10 µM [%]” value was 93.8 ± 2.1%.

In “in vitro”, `Cc1cccc(-c2c(C#N)c(N)nc3sc(C(=O)NCCN4CCOCC4)c(N)c23)c1` [Compound 9n, 3,6-Diamino-5-cyano-N-(2-morpholinoethyl)-4-(3-methylphenyl)thieno[2,3-b]pyridine-2-carboxamide] had a viability at 48 h, 30 µM of 70.9 ± 23.6%. The activity at 0.3 µM in series [1] (setting [3]) is 58.7 ± 25.9%. For the same compound, in series [1] (setting [4]), the activity at 3 µM was 91.6 ± 19.2%. The remaining activity at 10 µM on rPfGSK-3 (setting [5]) was under 40%. Also, in the series with rHsGSK-3, the “rHsGSK-3 Activity at 10 µM [%]” value is given as 93.9 ± 3.2%.

For the compound `Nc1c(C(=O)Nc2ccc(Cl)cc2)sc2nc3c(c(-c4ccccc4)c12)CCC3` [Compound 17b, 3-Amino-N-(4-chlorophenyl)-4-phenyl-6,7-dihydro-5H-cyclopenta[b]thieno[3,2-e]pyridine-2-carboxamide], in the series on HEK293T cells (human, 48 h), the “HEK293T Viability at 30 µM [%]” value amounted to 89.0 ± 15.8%. In the series “in vitro”, this compound registered a viability at 48 h, 30 µM of 92.7 ± 11.7%. Also, the “SI (Selectivity index for 3D7 erythrocytic forms versus HEK293 cells)” value in series [1] was over 100. This compound also had an IC50 in series [1] (setting [2]) of 0.193 µM. Also, in series [1] (setting [3]), the activity at 0.3 µM was 7.2 ± 11.3%. Besides, the activity at 3 µM in series [1] (setting [4]) is 7.7 ± 14.7%. Also, the remaining activity at 10 µM on rPfGSK-3 (setting [6]) was 104 ± 15.5%.

Take `Nc1c(C(=O)Nc2ccc(F)cc2)sc2nc3c(c(-c4ccccc4)c12)CCC3` [Compound 17c, 3-Amino-N-(4-fluorophenyl)-4-phenyl-6,7-dihydro-5H-cyclopenta[b]thieno[3,2-e]pyridine-2-carboxamide]: the “HEK293T Viability at 30 µM [%]” value in the series on HEK293T cells (human, 48 h) turned out to be 72.4 ± 23.4%. In the series “in vitro”, this compound gave a viability at 48 h, 30 µM of 92.7 ± 11.7%. In series [1], the “SI (Selectivity index for 3D7 erythrocytic forms versus HEK293 cells)” value is over 100. The compound further showed an IC50 in series [1] (setting [2]) of 0.0716 µM. The activity at 0.3 µM in series [1] (setting [3]) was 23.6 ± 16.5%. In series [1] (setting [4]), the activity at 3 µM is 9.9 ± 17.1%. For the same compound, the “IC50 (3D7) [nM]” value in series [1] (strain 3D7, erythrocytic forms) is on record as “two-digit nanomolar range”. The remaining activity at 10 µM at rPfGSK-3 (setting [6]) was 103 ± 6.2%.

With `Cc1cccc(-c2c3c(nc4sc(C(=O)Nc5ccc(Cl)cc5)c(N)c24)CCCC3)c1` [Compound 17e, 3-Amino-N-(4-chlorophenyl)-4-(3-methylphenyl)-5,6,7,8-tetrahydrothieno[2,3-b]quinoline-2-carbox-amide], the “HEK293T Viability at 30 µM [%]” value with HEK293T cells worked out at 57.9 ± 20.6%. For the same compound, the “Parasitemia (3D7) at 0.3 µM [%]” value in series [1] (0.3 µM, strain 3D7, calculated on DMSO controls) is recorded as 5.0 ± 11.6%. Also, the “Parasitemia (3D7) at 3 µM [%]” value in series [1] (3 µM, strain 3D7, calculated on DMSO controls) is recorded as 4.7 ± 13.5%. On rPfGSK-3 (10 µM, remaining activity, calculated on DMSO controls, Table 3), the “rPfGSK-3 Activity at 10 µM [%]” value is reported as 103.1 ± 10.7%.

Regarding `Cc1cccc(-c2c(C(=O)O)c(C)nc3sc(C(=O)Nc4ccc(Cl)cc4)c(N)c23)c1` [Compound 17i, 3-Amino-2-[(4-chlorophenyl)carbamoyl]-6-methyl-4-(3-methylphenyl)thieno[2,3-b]pyridine-5-carboxylic acid], the viability at 48 h, 30 µM in “in vitro” was 87.6 ± 19.6%. Also, the “antiplasmodial activity at the concentration investigated (in words)” value in series [1] (3 µM) is listed as “only low”. Besides, the activity at 0.3 µM in series [1] (setting [3]) is 99.8 ± 18.8%. Besides, in series [1] (setting [4]), the activity at 3 µM is 62.4 ± 21.5%. Also, the remaining activity at 10 µM at rPfGSK-3 (setting [5]) is 106 ± 8%.

Turning to `Cc1nc2sc(C(=O)Nc3ccc(Cl)cc3)c(N)c2c(-c2ccccc2)c1C(=O)O` [Compound 17j, 3-Amino-2-[(4-chlorophenyl)carbamoyl]-6-methyl-4-phenylthieno[2,3-b]pyridine-5-carboxylic acid], in the series “in vitro”, the viability at 48 h, 30 µM was 95.8 ± 9.8%. Also, the “antiplasmodial activity at the concentration investigated (in words)” value in series [1] (3 µM) is given as “no”. Moreover, in series [1] (setting [3]), the activity at 0.3 µM is 76.1 ± 23.1%. In addition, the activity at 3 µM in series [1] (setting [4]) is 97.1 ± 19.9%. For the same compound, the remaining activity at 10 µM on rPfGSK-3 (setting [5]) is 108 ± 10.4%.

In “in vitro”, `CC(C)(C)OC(=O)N1CCN(c2ccc(-c3c4c(nc5sc(C(=O)Nc6ccc(Cl)cc6)c(N)c35)CCCC4)c(Cl)c2)CC1` [Compound 17k, tert-Butyl 4-(4-{3-amino-2-[(4-chlorophenyl)carbamoyl]-5,6,7,8-tetrahydrothieno[2,3-b]quinolin-4-yl}-3-chlorophenyl)piperazine-1-carboxylate] gave a viability at 48 h, 30 µM of 84.3 ± 14.3%. For the same compound, the activity at 0.3 µM in series [1] (setting [3]) is 30 ± 24.9%. In addition, the activity at 3 µM in series [1] (setting [4]) is 2.6 ± 9%. The remaining activity at 10 µM at rPfGSK-3 (setting [5]) is 106 ± 18.7%.

Take `Cc1cc(-c2ccc(N3CCN(C(=O)OC(C)(C)C)CC3)cc2Cl)c2c(N)c(C(=O)Nc3ccc(Cl)cc3)sc2n1` [Compound 17l, tert-Butyl 4-(4-{3-amino-2-[(4-chlorophenyl)carbamoyl]-6-methylthieno[2,3-b]pyridin-4-yl}-3-chloro-phenyl)piperazine-1-carboxylate]: the viability at 48 h, 30 µM in “in vitro” is 68.4 ± 24.3%. The “SI (Selectivity index for 3D7 erythrocytic forms versus HEK293 cells)” value in series [1] is on record as over 100. In series [1] (setting [2]), the IC50 is 0.0555 µM. Further, the activity at 0.3 µM in series [1] (setting [3]) is 25.5 ± 14.4%. For the same compound, the activity at 3 µM in series [1] (setting [4]) is 1 ± 6.9%. Also, the “IC50 (3D7) [nM]” value in series [1] (strain 3D7, erythrocytic forms) is “two-digit nanomolar range”. Also, the remaining activity at 10 µM at rPfGSK-3 (setting [5]) was 103 ± 12.9%.
